Measurements as given in patent US20240360178A1, “MACROCYCLIC IMMUNOMODULATORS” (Bristol-Myers Squibb Company, priority 2021, published 2024).
Positions of bridges follow the written chain, without caps; N, C: chain ends. Non-standard residues stand in square brackets, D forms with d. Residues, ends and D or L forms follow the SMILES beside them. *: point of attachment. Bip = N[C@@H](Cc1ccc(-c2ccccc2)cc1)C(=O)O; Phe(3-CN) = N#Cc1cccc(C[C@H](N)C(=O)O)c1; Val(3-OH) = CC(C)(O)[C@H](N)C(=O)O; NMeF = CN[C@@H](Cc1ccccc1)C(=O)O; 3Pal = N[C@@H](Cc1cccnc1)C(=O)O; 4Pal = N[C@@H](Cc1ccncc1)C(=O)O; Cha = N[C@@H](CC1CCCCC1)C(=O)O; Carboxymethyl = O=C(O)C*; NMeA = CN[C@@H](C)C(=O)O; Orn = NCCC[C@H](N)C(=O)O; Dab = NCC[C@H](N)C(=O)O; Sar = CNCC(=O)O

What follows are molecules tested against T1, human PD-1 (Jurkat-PD-1 cells) / PE-labeled human PD-L1-Ig (Homo sapiens, UniProt Q15116) (assay: Jurkat-PD-1 Cell Binding High-Content Screening Assay (CBA); Jurkat hPD1-PDL1 assay). Conditions: Jurkat cell line over-expressing human PD-1; PE-labeled PD-L1-Ig 20 nM final; compound incubated 2 hours at 37° C.; read-out: Jurkat HPD1-PDL1 IC50.
T1 construct: expressed in transfected cells; host or cells: Jurkat cell line over-expressing human PD-1
How it was run: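 Jurkat-hPD-1 cells; cpd 2 h, 37° C; then PE-PD-L1-Ig 20 nM final in DMEM/10% FCS; high-content imaging read-out.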

T1 sequence (Q15116 25-288): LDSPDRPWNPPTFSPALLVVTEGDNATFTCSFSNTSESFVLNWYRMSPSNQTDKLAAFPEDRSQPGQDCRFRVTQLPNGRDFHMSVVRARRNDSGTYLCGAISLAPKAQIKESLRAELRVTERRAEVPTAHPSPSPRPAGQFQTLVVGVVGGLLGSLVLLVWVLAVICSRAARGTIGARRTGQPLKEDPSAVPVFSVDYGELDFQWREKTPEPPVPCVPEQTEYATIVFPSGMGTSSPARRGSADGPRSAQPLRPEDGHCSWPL

Q: How did the IC50 turn out when CC(C)C[C@@H]1NC(=O)[C@H](Cc2c[nH]c3ccccc23)NC(=O)[C@H](CC(=O)O)NC(=O)[C@H](Cc2ccc(OCC(=O)O)cc2)NC(=O)[C@H](Cc2ccncc2)NC(=O)CSC[C@@H](C(=O)N[C@@H](C)C(N)=O)NC(=O)[C@H](CO)NC(=O)[C@H](C(C)C)NC(=O)[C@H](CC(C)C)NC(=O)[C@H](CC(N)=O)NC(=O)[C@H]2CCCN2C(=O)[C@H](C)N(C)C(=O)[C@H](C(C)C)NC(=O)[C@H](Cc2ccc(-c3ccccc3)cc2)NC1=O [Example 1391] ({CH2CO}-[4Pal]Y(Carboxymethyl)DWL[Bip]V[NMeA][dP]NLVSCA-NH2; thioether N-14) was run?
A: 0.04 µM

Q: How did the IC50 turn out when CC(C)C[C@@H]1NC(=O)[C@H](CCCNC(=N)N)NC(=O)[C@H](Cc2ccccc2)N(C)C(=O)[C@H](C)N(C)C(=O)[C@H](CCC(=O)O)NC(=O)[C@H](Cc2ccc(-c3ccccc3)cc2)NC(=O)[C@H](C(C)C)NC(=O)[C@H](Cc2c[nH]c3ccccc23)NC(=O)[C@H](CC(=O)O)NC(=O)[C@H](Cc2ccc(O)cc2)NC(=O)[C@H](CC(N)=O)NC(=O)CSC[C@@H](C(=O)N[C@@H](C)C(N)=O)NC(=O)[C@H]([C@@H](C)O)NC(=O)[C@H](C(C)C)NC1=O [Example 1379] ({CH2CO}-NYDWV[Bip]E[NMeA][NMeF]RLVTCA-NH2; thioether N-14) was run?
A: 0.04 µM

Q: Which IC50 does the source give for CC(C)C[C@@H]1NC(=O)[C@H](Cc2c[nH]c3ccccc23)NC(=O)[C@H](CC(=O)O)NC(=O)[C@H](Cc2ccc(O)cc2)NC(=O)[C@H](Cc2ccc(OCC(=O)O)cc2)NC(=O)CSC[C@@H](C(=O)NCC(N)=O)NC(=O)[C@H](CO)NC(=O)[C@H](C(C)C)NC(=O)[C@H](CC(C)C)NC(=O)[C@H](CC(N)=O)NC(=O)CN(C)C(=O)[C@H](C)N(C)C(=O)[C@H](C(C)C)NC(=O)[C@H](Cc2ccc(-c3ccccc3)cc2)NC1=O [Example 1137] ({CH2CO}-Y(Carboxymethyl)YDWL[Bip]V[NMeA][Sar]NLVSCG-NH2; thioether N-14) here?
A: 0.56 µM

Q: With CC(C)C[C@@H]1NC(=O)[C@H](CCCNC(=N)N)NC(=O)[C@H](Cc2ccccc2)N(C)C(=O)[C@H](C)N(C)C(=O)[C@H](CCC(=O)O)NC(=O)[C@H](Cc2ccc(-c3ccccc3)cc2)NC(=O)[C@H](C(C)C)NC(=O)[C@H](Cc2c[nH]c3ccccc23)NC(=O)[C@H](CC(=O)O)NC(=O)[C@H](Cc2ccc(O)cc2)NC(=O)[C@H](Cc2cnc[nH]2)NC(=O)CSC[C@@H](C(=O)NCC(N)=O)NC(=O)[C@H](CO)NC(=O)[C@H](C(C)C)NC1=O [Example 1288] ({CH2CO}-HYDWV[Bip]E[NMeA][NMeF]RLVSCG-NH2; thioether N-14) as the molecule, how does the IC50 read?
A: 0.08 µM

Q: For CC(C)C[C@@H]1NC(=O)[C@H](Cc2c[nH]c3ccccc23)NC(=O)[C@H](CC(=O)O)NC(=O)[C@H](Cc2ccc(O)cc2)NC(=O)[C@H](CC(N)=O)NC(=O)CSC[C@@H](C(=O)NCC(N)=O)NC(=O)[C@H](CO)NC(=O)[C@H](C(C)C)NC(=O)[C@H](CC(C)C)NC(=O)[C@H](CCN)NC(=O)[C@H]2CCCN2C(=O)[C@H](CCCN)NC(=O)[C@H](C(C)C)NC(=O)[C@H](Cc2ccc(-c3ccccc3)cc2)NC1=O [Example 1403] ({CH2CO}-NYDWL[Bip]V[Orn][dP][Dab]LVSCG-NH2; thioether N-14), which IC50 is on record?
A: 0.07 µM

Q: How did the IC50 turn out when CC(C)C[C@@H]1NC(=O)[C@H](CCCNC(=N)N)NC(=O)[C@H](Cc2ccccc2)N(C)C(=O)[C@H](C)N(C)C(=O)[C@H](CCCNC(=N)N)NC(=O)[C@H](Cc2ccc(-c3ccccc3)cc2)NC(=O)[C@H](C(C)C)NC(=O)[C@H](Cc2c[nH]c3ccccc23)NC(=O)[C@H](CC(=O)O)NC(=O)[C@H](Cc2ccc(OCC(=O)O)cc2)NC(=O)[C@H](Cc2ccccc2)NC(=O)CSC[C@@H](C(=O)NCC(N)=O)NC(=O)[C@H](CO)NC(=O)[C@H](C(C)C)NC1=O [Example 1275] ({CH2CO}-FY(Carboxymethyl)DWV[Bip]R[NMeA][NMeF]RLVSCG-NH2; thioether N-14) was run?
A: 0.03 µM

Q: Which IC50 does the source give for CC(C)C[C@@H]1NC(=O)[C@H](Cc2c[nH]c3ccccc23)NC(=O)[C@H](CC(=O)O)NC(=O)[C@H](Cc2ccc(O)cc2)NC(=O)[C@H](Cc2ccccc2)NC(=O)CSC[C@@H](C(=O)N[C@@H](C)C(N)=O)NC(=O)[C@H](CO)NC(=O)[C@H](C(C)C)NC(=O)[C@H](CC(C)C)NC(=O)[C@H](CC(N)=O)NC(=O)[C@H](Cc2ccccc2)N(C)C(=O)[C@H](C)N(C)C(=O)[C@H](CCCNC(=N)N)NC(=O)[C@H](Cc2ccc(-c3ccccc3)cc2)NC1=O [Example 1095] ({CH2CO}-FYDWL[Bip]R[NMeA][NMeF]NLVSCA-NH2; thioether N-14) here?
A: 0.28 µM

Q: Which IC50 does the source give for CC(C)C[C@@H]1NC(=O)[C@H](CCCNC(=N)N)NC(=O)[C@H](Cc2ccccc2)N(C)C(=O)[C@H](C)N(C)C(=O)[C@H](CCCNC(=N)N)NC(=O)[C@H](Cc2ccc(-c3ccccc3)cc2)NC(=O)[C@H](C(C)C)NC(=O)[C@H](Cc2c[nH]c3ccccc23)NC(=O)[C@H](CC(=O)O)NC(=O)[C@H](Cc2ccc(O)cc2)NC(=O)[C@H](CCC(=O)O)NC(=O)CSC[C@@H](C(=O)NCC(N)=O)NC(=O)[C@H](CO)NC(=O)[C@H](C(C)C)NC1=O [Example 1210] ({CH2CO}-EYDWV[Bip]R[NMeA][NMeF]RLVSCG-NH2; thioether N-14) here?
A: 0.6 µM

Q: CC(C)C[C@@H]1NC(=O)[C@H](Cc2c[nH]c3ccccc23)NC(=O)[C@H](CC(=O)O)NC(=O)[C@H](Cc2ccc(O)cc2)NC(=O)[C@H](Cc2ccccc2)NC(=O)CSC[C@@H](C(=O)N[C@@H](C)C(N)=O)NC(=O)[C@H]([C@@H](C)O)NC(=O)[C@H](C(C)C)NC(=O)[C@H](CC(C)C)NC(=O)[C@H](CCN)NC(=O)[C@H]2CCCN2C(=O)[C@H](CCN)NC(=O)[C@H](C(C)C)NC(=O)[C@H](Cc2ccc(-c3ccccc3)cc2)NC1=O [Example 1416] ({CH2CO}-FYDWL[Bip]V[Dab][dP][Dab]LVTCA-NH2; thioether N-14) was tested. Which IC50 did it give?
A: 0.24 µM

Q: With CC(C)C[C@@H]1NC(=O)[C@H](Cc2c[nH]c3ccccc23)NC(=O)[C@H](CC(=O)O)NC(=O)[C@H](Cc2cccc(C#N)c2)NC(=O)[C@H](Cc2ccncc2)NC(=O)CSC[C@@H](C(=O)N[C@@H](CCN)C(N)=O)NC(=O)[C@H](CO)NC(=O)[C@H](C(C)(C)O)NC(=O)[C@H](CC2CCCCC2)NC(=O)[C@H](CCN)NC(=O)[C@H]2CCCN2C(=O)[C@H](C)N(C)C(=O)[C@H](C(C)C)NC(=O)[C@H](Cc2ccc(-c3ccccc3)cc2)NC1=O [Example 1183] ({CH2CO}-[4Pal][Phe(3-CN)]DWL[Bip]V[NMeA][dP][Dab][Cha][Val(3-OH)]SC[Dab]-NH2; thioether N-14) as the molecule, how does the IC50 read?
A: 0.04 µM

Q: How did the IC50 turn out when CC(C)C[C@@H]1NC(=O)[C@H](Cc2c[nH]c3ccccc23)NC(=O)[C@H](CC(=O)O)NC(=O)[C@H](Cc2ccc(O)cc2)NC(=O)[C@H](Cc2ccccc2)NC(=O)CSC[C@@H](C(=O)N[C@@H](C)C(N)=O)NC(=O)[C@H](CO)NC(=O)[C@H](C(C)C)NC(=O)[C@H](CC(C)C)NC(=O)[C@H](CCCCN)NC(=O)[C@H]2CCCN2C(=O)[C@H](C)N(C)C(=O)[C@H](CCC(=O)O)NC(=O)[C@H](Cc2ccc(-c3ccccc3)cc2)NC1=O [Example 1036] ({CH2CO}-FYDWL[Bip]E[NMeA][dP]KLVSCA-NH2; thioether N-14) was run?
A: 0.06 µM

Q: For CC(C)C[C@@H]1NC(=O)[C@H](Cc2c[nH]c3ccccc23)NC(=O)[C@H](CC(=O)O)NC(=O)[C@H](Cc2ccc(O)cc2)NC(=O)[C@H](Cc2cccnc2)NC(=O)CSC[C@@H](C(=O)NCC(N)=O)NC(=O)[C@H](CO)NC(=O)[C@H](C(C)C)NC(=O)[C@H](CC(C)C)NC(=O)[C@H](CC(N)=O)NC(=O)CN(C)C(=O)[C@H](C)N(C)C(=O)[C@H](C(C)C)NC(=O)[C@H](Cc2ccc(-c3ccccc3)cc2)NC1=O [Example 1118] ({CH2CO}-[3Pal]YDWL[Bip]V[NMeA][Sar]NLVSCG-NH2; thioether N-14), which IC50 is on record?
A: 0.42 µM
